Here are results for 16 compounds from patent publication US6333340A, “Small molecule sulfonamides for vision and memory disorders” (Gpi Nil Holdings, Inc., priority 1998, dated 2001).

In data set [1] the test system is retinal ganglion cell axons. The data set can be described thus: Protection of retinal ganglion cell axons from degeneration following optic nerve transection, RT 97 axon density (Table V). Format: in vivo. The source says:
Efficacy of representative compounds from different immunophilin ligand series in protecting retinal ganglion cell axons from degeneration following optic nerve transection is set forth in Table V.

Data set [2] is described as follows: Clearance (comments of Table V). Format: in vitro ADME.
For data set [3], the target named is FKBP12 (Homo sapiens, UniProt P62942). The data set can be described thus: Inhibition of peptidyl-prolyl isomerase (rotamase) activity of FKBP, chymotrypsin-coupled assay. Format: biochemical. The source says:
The inhibition of the prolyl peptidyl cis-trans isomerase activity of FKBP may be measured as an indicator of this affinity.
Inhibition of the peptidyl-prolyl isomerase (rotamase) activity of the compounds used in the inventive methods and pharmaceutical compositions can be evaluated by known methods described in the literature (Harding et al., Nature, 1989, 341:758-760; Holt et al. J. Am. Chem. Soc., 115:9923-9938). These values are obtained as apparent Ki 's and are presented for representative compounds in TABLE B.
The cis-trans isomerization of an alanine-proline bond in a model substrate, N-succinyl-Ala-Ala-Pro-Phe-p-nitroanilide, is monitored spectrophotometrically in a chymotrypsin-coupled assay, which releases para-nitroanilide from the trans form of the substrate. The inhibition of this reaction caused by the addition of different concentrations of inhibitor is determined, and the data is analyzed as a change in first-order rate constant as a function of inhibitor concentration to yield the apparent Ki values.
In a plastic cuvette are added […] of ice cold assay buffer (25 mM HEPES, pH 7.8, 100 mM NaCl), 10 mL of FKBP (2.5 mM in 10 mM Tris-Cl pH 7.5, 100 mM NaCl, 1 mM dithiothreitol), 25 mL of chymotrypsin (50 mg/ml in 1 mM HCl) and […] of test compound at various concentrations in dimethyl sulfoxide. The reaction is initiated by the addition of 5 mL of substrate (succinyl-Ala-Phe-Pro-Phe-para-nitroanilide, 5 mg/mL in 2.35 mM LiCl in trifluoroethanol).
The absorbance at 390 nm versus time is monitored for 90 seconds using a spectrophotometer and the rate constants are determined from the absorbance versus time data files.

Setting [4] is: apparent Ki, Table B, read-out: Ki.

Molecules are shown by their SMILES. Read-outs that look alike come from different tables or passages of the source.

FKBP12, sequence (P62942 whole entry): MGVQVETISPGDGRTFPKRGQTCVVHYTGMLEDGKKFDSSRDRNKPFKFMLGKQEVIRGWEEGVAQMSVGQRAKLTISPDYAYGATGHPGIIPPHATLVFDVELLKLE

As to `O=C(SCCCc1ccccc1)[C@@H]1CCCN1C(=O)NC12CC3CC(CC(C3)C1)C2` [B], in data set [1], the “RT 97 RCC axon density 11 days after ON transection (36 ON axon rescued)” value (shortened to “RT 97 RCC axon density 11 days”) amounted to 100%. The compound `O=C(SCCCc1ccccc1)[C@@H]1CCCN1S(=O)(=O)Cc1ccccc1` [C] displayed a Clearance in data set [2] of 31.1 µL/min. For the same compound, the “RT 97 RCC axon density 11 days” value in data set [1] is 60.4%. With `Cc1ccc(S(=O)(=O)N2CCCCC2C(=O)OC(CCCc2ccccc2)CCCc2ccccc2)cc1` (stereo not shown) [Compound 3, 1,7-diphenyl-4-heptyl-N-(para-toluene-sulfonyl)pipecolate], in data set [3] (setting [4]), the Ki came out at 107 nM.

On to `Cc1ccc(S(=O)(=O)N2CCCCC2C(=O)OCCCCc2ccccc2)cc1` (stereo not shown) [Compound 5, 4-phenyl-1-butyl-N-(para-toluene-sulfonyl)pipecolate], for which the Ki in data set [3] (setting [4]) amounted to 504 nM. Turning to `O=C(OCCCCc1ccccc1)C1CCCCN1S(=O)(=O)c1ccccc1` (stereo not shown) [Compound 6, 4-phenyl-1-butyl-N-(benzene-sulfonyl)pipecolate], the Ki in data set [3] (setting [4]) is 470 nM. `O=C(OCCCCc1ccccc1)[C@@H]1CCCCN1S(=O)(=O)Cc1ccccc1` [D]: in data set [1], the “RT 97 RCC axon density 11 days” value is 58.4%. In turn, `CCC(C)(C)C(=O)CN1CCCCC1C(=O)OC(CCc1ccccc1)CCc1ccccc1` (stereo not shown) [E] yielded a Clearance in data set [2] of 42.8 µL/min. Moreover, in data set [1], the “RT 97 RCC axon density 11 days” value is reported as 56.6%. As for `CCC(C)(C)C(=O)C(=O)N1CCS[C@H]1C(=O)OCCCc1cccnc1` [F], in data set [1], the “RT 97 RCC axon density 11 days” value came out at 55.1%. In addition, the Ki in data set [3] (Table V, read-out: Ki rotomase) turned out to be 272 nM.

With `CCC(C)(C)C(=O)C(=O)N1CCCC[C@H]1C(=O)O` [G], the “RT 97 RCC axon density 11 days” value in data set [1] is 34.0%.

Regarding `CCC(C)(C)C(=O)C(=O)N1CCCC[C@H]1C(=O)O` [H], the “RT 97 RCC axon density 11 days” value in data set [1] is reported as 30.3%.

In turn, `O=C(OCCCc1cccnc1)[C@@H]1CCCN1C(=S)NC1CCCCC1` [I] returned a Clearance in data set [2] of 8.0 µL/min. Also, the “RT 97 RCC axon density 11 days” value in data set [1] amounted to 23.8%.

`CCC(C)(C)C(=O)C(=O)N1CCCC[C@H]1C(=O)CCCCc1cccnc1` [J]: the Clearance in data set [2] stood at 1.5 µL/min. Further, the “RT 97 RCC axon density 11 days” value in data set [1] is reported as 15.8%. The Ki in data set [3] (Table V, read-out: Ki rotomase) came out at 210 nM.

`CCC(C)(C)C(=O)C(=O)N1CCCC[C@H]1C(=O)SCCC(c1ccccc1)c1ccccc1` [K] showed a Clearance in data set [2] of 4.5 µL/min. In data set [1], the “RT 97 RCC axon density 11 days” value came to 13.0%. `CCC(C)(C)C(=O)C(=O)N1CCC[C@H]1C(=O)O` [L]: the Clearance in data set [2] worked out at 5.2 µL/min. Moreover, the “RT 97 RCC axon density 11 days” value in data set [1] is 7.8%.

`CCC(C)(C)C(=O)C(=O)N1CCC[C@H]1C(=O)SCCC(c1ccccc1)c1ccccc1` [M] had a Clearance in data set [2] of 12.5 µL/min. In data set [1], the “RT 97 RCC axon density 11 days” value is recorded as -6.3%.

The compound `CN(C)C(=O)N1CCC[C@H]1C(=O)SCCCc1ccccc1` [N] yielded a Clearance in data set [2] of 21.9 µL/min.
